# Reference: ChEMBL document CHEMBL3044993, “Structural confirmation of 15-norlubiminol and 15-norepilubiminol, isolated from Solanum aethiopicum, by chemical conversion from lubimin and epilubimin, and their antifungal activity” (2001)
# Assays:
# [1] = system: Verticillium dahliae; assay: Antifungal activity against Verticillium dahliae assessed as spore germination rate at 100 ppm relative to untreated control; format: functional
# [2] = system: Fusarium oxysporum f. sp. melongenae; assay: Antifungal activity against Fusarium oxysporum f. sp. melongenae assessed as spore germination rate at 100 ppm relative to untreated control; format: functional
SMILES,Activity [1] [%],Activity [2] [%]
C=C(C)[C@@H]1CC[C@]2(C1)[C@H](C)C[C@H](O)C[C@H]2O [15-NOREPILUBIMINOL],57,113
C=C(C)[C@@H]1CC[C@]2(C1)[C@H](C)C[C@H](O)C[C@@H]2O [15-NORLIBIMINOL],52,114
C=C(C)[C@@H]1CC[C@]2(C1)[C@H](C)C[C@H](O)C[C@H]2C=O [EPILUBIMIN],54,30
C=C(C)[C@@H]1CC[C@]2(C1)[C@H](C)C[C@H](O)C[C@@H]2C=O [LUBIMIN],42,5
